Each structure is given as a SMILES string. “Also recorded” adds a separate entry of the source.

Experiment [1] concerns divalent cation-independent serine/threonine protein phosphatase activity. As to the kind of experiment: Divalent cation-independent phosphatase activity in dilute whole cell homogenate of rabbit ventricle. The format is biochemical. Particulars: crude whole cell homogenate, [32P]-phosphohistone. As to the method:
FIG. 5: Effect of fostriecin on the divalent cation-independent phosphatase activity contained in a dilute, whole cell homogenate of rabbit ventricle. Dilute homogenates of rabbit ventricle biopsies were assayed in the presence of the indicated amount of fostriecin. […] Assays were conducted in a total volume of 80 μl, and the indicated amount of fostriecin was added to the assay 10 minutes prior to initiation of the reaction by the addition of substrate. Each point represents the mean ± SE (n>6).
Determination of protein phosphatase activity: Protein phosphatase activity against phosphohistone was determined by the quantification of liberated [^32 P] from phosphohistone according to previously established methods (see Honkanen et al., J. Biol. Chem. 265:19401-04 (1990); Honkanen et al., Mol. Pharmacol. 40:577-83 (1991); and Critz and Honkanen, Neuroprotocols 6:78-83 (1995)). Assays (80 μl final volume) were conducted in 50 mM Tris-buffer (pH 7.4) containing 0.5 mM DTT, 4 mM EDTA, and phosphoprotein (2 μM PO4). […] [^32 P]Phosphate liberated by the enzyme was then extracted as a phosphomolybdate complex and measured according to the methods of Killilea et al., Arch. […] Aliquots of the upper phase (100 μl) were removed for counting, and radioactivity was quantified with a scintillation counter. […]

A further experiment concerns PP1/PP2A-chimera (CRHM2). As to the kind of experiment: Inhibition of recombinant PP1/PP2A chimera. Type of experiment: biochemical, human PP1 / bovine PP2A. On the procedure: FIG. 6: Sequence of a PP1/PP2A chimera. To characterize the fostriecin binding site, the N-terminal region of PP1 was ligated to the C-terminal region of PP2A (in bold) to produce a PP1/PP2A-chimera (CRHM2). Previous studies indicate that the okadaic acid binding domain is contained in the C-terminal region of PP2A that was incorporated into CRHM2.
FIG. 7: Effect of fostriecin and okadaic acid on the activity of recombinant CRHM2. CRHM2 activity was assayed in the presence of the indicated amount of fostriecin (FIG. 7A) or okadaic acid (FIG. 7B). […] Assays were conducted as described in FIG. 5. Each point represents the mean ± SE (n>6).
PP1, an enzyme highly homologous to PP2A, could be expressed in a stable manner and in relatively large amounts. Thus, human PP1 was cloned and subcloned into a bacterial expression vector as was done for PP2A. […] To create a hybrid enzyme (a PP1/PP2A chimera) that could be expressed stably like rPP1 but would bind okadaic acid with high affinity like PP2A, a number of mutant forms of PP1 and PP2A were constructed. Then, through mutational analysis, the okadaic acid binding domain of PP2A was identified. The okadaic acid binding domain from PP2A was cloned behind the amino terminal domain of PP1. The hybrid, referred to as CRHM-2, was subcloned into an expression vector. Restriction analysis of CRHM-2 confirmed the identity of the construct.
In these studies, the bacterial expressed PP1/PP2A hybrid enzyme was produced by growing appropriate strains of transformed E. coli at 18° C. for 48 hours in LB-media containing 50 μg/ml ampicillin, 1 mM MnCl2, and 50 μM IPTG. The bacteria were lysed with a French Press, and after centrifugation at 15,000×g for 45 min, the phosphatase was partially purified via ion-exchange [High Q (BioRad) and MonoQ (Pharmacia)] and affinity [Heparin-Sepharose (Pharmacia)] chromatography. The sensitivity of the chimera to fostriecin was determined employing the same protein phosphatase assay employed with endogenous PP1 or PP2A, with the addition of MnCl2 (1 mM) to the assay buffer.

The subject of experiment [2] is protein phosphatase type 1 (PP1). As to the kind of experiment: Protein phosphatase inhibition assay, purified catalytic subunit, [32P]-phosphohistone or phosphorylase a substrate. The format is biochemical. As to the method:
(§1) FIG. 4: Effect of fostriecin on the activity of protein phosphatase type 1 (PP1) and protein phosphatase type 2A (PP2A). The activity of the purified catalytic subunits of PP1 (Δ,s) or PP2A (O,1) was assayed in the presence of the indicated amount of fostriecin. The inhibition assays employed freshly prepared [^32 P]-phosphohistone (open symbols) or [^32 P]phosphorylase A (filled symbols) as substrate and highly purified catalytic subunits of PP1 or PP2A. Assays were conducted in a total volume of 80 μl, and the indicated amount of fostriecin was added to the assay 10 minutes prior to initiation of the reaction by the addition of substrate. Each point represents the mean ± SE (n>6).
(§2) Determination of protein phosphatase activity: Protein phosphatase activity against phosphohistone was determined by the quantification of liberated [^32 P] from phosphohistone according to previously established methods (see Honkanen et al., J. Biol. Chem. 265:19401-04 (1990); Honkanen et al., Mol. Pharmacol. 40:577-83 (1991); and Critz and Honkanen, Neuroprotocols 6:78-83 (1995)). Assays (80 μl final volume) were conducted in 50 mM Tris-buffer (pH 7.4) containing 0.5 mM DTT, 4 mM EDTA, and phosphoprotein (2 μM PO4). The assay was initiated by the addition of substrate (30 μl) to a 1.5 ml microfuge tube containing 50 μl of dilute homogenate. Assays were conducted at 30° C. for 10 minutes and were stopped by the addition of 100 μl of 1N H2 SO4 containing 1 mM K2 HPO4. [^32 P]Phosphate liberated by the enzyme was then extracted as a phosphomolybdate complex and measured according to the methods of Killilea et al., Arch. Biochem. Biophys. 191:638-46 (1978)). Briefly, free phosphate was extracted by adding 20 μl of ammonium molybdate (7.5% w/v in 1.4 N H2 SO4) and 250 μl of isobutanol:benzine (1:1, v/v) to each tube. The tubes were mixed vigorously for approximately 10 seconds followed by centrifugation at 14,000×g for 2 minutes. Aliquots of the upper phase (100 μl) were removed for counting, and radioactivity was quantified with a scintillation counter.
(§3) For inhibition studies, the indicated amount of fostriecin or okadaic acid was added to the enzyme mixture 10 minutes before the reaction was initiated with the addition of substrate. Controls received solvent alone, and in all experiments the amount of enzyme was diluted to ensure that the samples were below the titration endpoint. The titration endpoint is defined as the concentration of enzyme after which further dilution no longer affects the IC50 of the toxin, and represents a point where the concentration of enzyme used in the assay no longer approaches that of the toxin. This ensures that IC50 represents the potency of the inhibitor alone and is not representative of a combination of potency of the toxin and titration artifacts of the assay system. Preliminary assays were also performed to ensure the dephosphorylation reaction was linear with respect to enzyme concentration and time.
(§4) The catalytic subunit of PP2A was purified to apparent homogeneity according to established methods as described by Pallas et al., Cell 60:167-176 (1990) using G-75 Sephadex in the place of Ultrogel-AcA44 as previously reported in Brautigan et al., J. Biol. Chem. 260:4295-02 and Honkanen et al., Mol. Pharmacol 40:577-83 (1991). PP1 and PP2A both are now also available from several commercial sources.

For experiment [3], the system named is protein phosphatase type 2A (PP2A). Described as above. Type of experiment: biochemical. As to the method:
as §1, §2, §3, §4

Setting [4] is: phosphohistone and phosphorylase-a substrates.

For `CC(O)(/C=C/C1CC=CC(=O)O1)C(CC(O)\C=C/C=C\C=C\CO)OP(=O)(O)O` (centres unmarked) [fostriecin], in experiment [1], the “inhibition of phosphatase activity in rabbit heart ventricle homogenate” value is “inhibits”. Besides, the “sensitivity / potency of inhibition of the chimera” value in the experiment with PP1/PP2A-chimera (CRHM2) ([32P]-phosphohistone, 1 mM MnCl2 in assay buffer) is reported as “sensitive”. The “binding affinity to the recombinant hybrid enzyme” value in the experiment with PP1/PP2A-chimera (CRHM2) (enzyme printed as rPP2Ac-1) is “affinity comparable to that of PP1”. In addition, the “effect on PP1 at the protective concentration” value in experiment [2] (1-10 μM fostriecin) is reported as “no direct effect; also recorded: minor effect”. In addition, in experiment [2] (setting [4]), the “inhibition of PP1 catalytic subunit” value is given as “inhibited by fostriecin in a dose-dependent manner”. In experiment [3] (1-10 μM fostriecin), the “inhibition of PP2A at the protective concentration” value is recorded as “inhibits the activity of PP2A; also recorded: inhibits PP2A completely”. Moreover, in experiment [3] (setting [4]), the “inhibition of PP2A catalytic subunit” value is given as “inhibited by fostriecin in a dose-dependent manner”. Besides, the “concentration inhibiting PP2A relative to PP1” value in experiment [3] (purified catalytic subunits) was “at a lower concentration than PP1”.

For the origin of these results see patent US5914242A, “Method for diminishing myocardial infarction using protein phosphatase inhibitors” (priority 1997, dated 1999).
